Measured values from patent US9902702B2, “Spirocycloheptanes as inhibitors of rock” (BRISTOL-MYERS SQUIBB COMPANY, priority 2014, dated 2018).

These compounds were tested against ROCK2 (Homo sapiens, UniProt O75116) (assay: ROCK assay: phosphorylation of FITC peptide substrate, LABCHIP 3000 mobility shift). Details: 5 μM ATP, 1.5 μM peptide substrate; read-out: ROCK2 Activity (ROCK IC50 range).
Assay type: biochemical
Procedure, shortened: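 Rho kinase variant phosphorylates 1.5 μM FITC-AHA-AKRRRLSSLRA-OH with 5 μM ATP in 20 mM HEPES pH 7.5, 20 mM MgCl2, 0.015% Brij-35, 4 mM DTT, DMSO <2%. EDTA stops the reaction, and phospho and non-phospho peptides are resolved by LabChip 3000 mobility shift. IC50 from dose-response curve fit.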

ROCK2, sequence (O75116 whole entry, species assumed): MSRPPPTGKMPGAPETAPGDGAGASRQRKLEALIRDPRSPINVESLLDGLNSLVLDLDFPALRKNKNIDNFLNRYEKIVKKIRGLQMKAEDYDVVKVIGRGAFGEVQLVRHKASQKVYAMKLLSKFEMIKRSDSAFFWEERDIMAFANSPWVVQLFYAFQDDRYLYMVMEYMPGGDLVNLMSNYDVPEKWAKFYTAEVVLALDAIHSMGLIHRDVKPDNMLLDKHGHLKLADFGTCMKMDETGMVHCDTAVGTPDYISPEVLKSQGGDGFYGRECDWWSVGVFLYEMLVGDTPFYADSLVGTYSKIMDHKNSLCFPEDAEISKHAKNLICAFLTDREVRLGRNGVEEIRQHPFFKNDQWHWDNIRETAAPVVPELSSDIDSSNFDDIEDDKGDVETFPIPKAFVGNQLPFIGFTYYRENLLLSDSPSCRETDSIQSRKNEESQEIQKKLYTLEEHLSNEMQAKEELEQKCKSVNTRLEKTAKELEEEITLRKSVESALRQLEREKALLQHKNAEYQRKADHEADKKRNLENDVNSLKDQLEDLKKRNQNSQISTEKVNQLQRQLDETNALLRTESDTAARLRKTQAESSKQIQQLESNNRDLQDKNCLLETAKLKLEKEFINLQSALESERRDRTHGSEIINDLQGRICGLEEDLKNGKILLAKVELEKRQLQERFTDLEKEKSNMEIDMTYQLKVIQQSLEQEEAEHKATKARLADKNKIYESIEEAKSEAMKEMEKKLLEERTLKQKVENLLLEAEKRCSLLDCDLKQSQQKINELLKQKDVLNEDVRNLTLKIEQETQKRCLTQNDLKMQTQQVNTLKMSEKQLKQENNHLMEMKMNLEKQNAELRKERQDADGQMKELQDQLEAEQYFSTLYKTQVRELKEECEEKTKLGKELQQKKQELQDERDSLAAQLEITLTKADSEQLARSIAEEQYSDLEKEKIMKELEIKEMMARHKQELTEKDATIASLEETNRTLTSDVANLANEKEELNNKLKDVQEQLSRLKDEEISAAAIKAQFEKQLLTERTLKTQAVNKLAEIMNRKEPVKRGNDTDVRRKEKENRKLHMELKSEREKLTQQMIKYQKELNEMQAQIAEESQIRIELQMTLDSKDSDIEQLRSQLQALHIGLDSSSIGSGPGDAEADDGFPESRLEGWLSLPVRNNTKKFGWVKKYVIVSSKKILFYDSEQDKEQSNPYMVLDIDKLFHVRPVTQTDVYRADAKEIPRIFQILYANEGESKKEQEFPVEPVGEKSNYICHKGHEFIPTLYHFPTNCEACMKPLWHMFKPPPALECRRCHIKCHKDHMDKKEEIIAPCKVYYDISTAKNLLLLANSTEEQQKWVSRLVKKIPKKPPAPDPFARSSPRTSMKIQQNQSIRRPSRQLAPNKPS

IC50 [nM]	SMILES
15.1 to 100	Cn1nc(C(=O)NC2CC3(C2)CC(c2n[nH]c(=O)c4ccccc24)C3)cc1OC(F)F [Example 28, 5-(difluoromethoxy)-1-methyl-N-[(aR)-6-(4-oxo-3,4-dihydrophthalazin-1-yl)spiro[3.3]heptan-2-yl]-1H-pyrazole-3-carboxamide]
5.1 to 15	CC(C)(O)Cn1nc(C(=O)NC2CC3(C2)CC(c2n[nH]c(=O)c4ccccc24)C3)c2ccc(C=CC3CC3)cc21 (stereo not drawn) [Example 149, 6-((E)-2-cyclopropylvinyl)-1-(2-hydroxy-2-methylpropyl)-N-((αR)-6-(4-oxo-3,4-dihydrophthalazin-1-yl)spiro[3.3]heptan-2-yl)-1H-indazole-3-carboxamide]
2.01 to 5	[H][C@]1(c2n[nH]c(=O)c3ccccc32)C[C@]2(C[C@@H](NC(=O)c3nc(C(C)C)n4c3CCCC4)C2)C1 (stereo partly drawn) [Example 388, 3-isopropyl-N-((aR)-6-(4-oxo-3,4-dihydrophthalazin-1-yl)spiro[3.3]heptan-2-yl)-5,6,7,8-tetrahydro-imidazo[1,5-a]pyridine-1-carboxamide]
100 to 2100	[H][C@]1(c2n[nH]c(=O)c3ccccc32)C[C@]2(C[C@@H](NC(=O)C3NCc4ccccc43)C2)C1 (stereo partly drawn) [Example 323, N-((aR)-6-(4-oxo-3,4-dihydrophthalazin-1-yl)spiro[3.3]heptan-2-yl)isoindoline-1-carboxamide]
5.1 to 15	[H][C@]1(c2n[nH]c(=O)c3ccccc32)C[C@]2(C[C@@H](NC(=O)c3ccc(-c4cnn(C)c4)cc3)C2)C1 (stereo partly drawn) [Example 451, 4-(1-methyl-1H-pyrazol-4-yl)-N-((aR)-6-(4-oxo-3,4-dihydrophthalazin-1-yl)spiro[3.3]heptan-2-yl)benzamide]
15.1 to 100	Cc1sc(N2CCCC2C(F)(F)F)nc1C(=O)NC1CC2(C1)CC(c1n[nH]c(=O)c3ccccc13)C2 [Example 60, 5-methyl-N-((aR)-6-(4-oxo-3,4-dihydrophthalazin-1-yl)spiro[3.3]heptan-2-yl)-2-((R)-2-(trifluoromethyl)pyrrolidin-1-yl)thiazole-4-carboxamide]
2.01 to 5	Cc1nc(N2CCC(F)C2)sc1C(=O)NC1CC2(C1)CC(c1n[nH]c(=O)c3ccccc13)C2 [Example 36, 2-[(3S)-3-fluoropyrrolidin-1-yl]-4-methyl-N-[(aR)-6-(4-oxo-3,4-dihydrophthalazin-1-y)spiro[3.3]heptan-2-yl]-1,3-thiazole-5-carboxamide]
2.01 to 5	Cn1cc(-c2ccc3c(C(=O)NC4CC5(C4)CC(c4n[nH]c(=O)c6ccccc46)C5)nn(CC(C)(C)O)c3c2)nn1 (stereo not drawn) [Example 154, 1-(2-hydroxy-2-methylpropyl)-6-(1-methyl-1H-1,2,3-triazol-4-yl)-N-((αR)-6-(4-oxo-3,4-dihydrophthalazin-1-yl)spiro[3.3]heptan-2-yl)-1H-indazole-3-carboxamide]
0.2 to 2	COc1ccccc1-c1ccc2c(C(=O)NC3CC4(C3)CC(c3n[nH]c(=O)c5ccccc35)C4)nn(CC(C)(C)O)c2c1 (stereo not drawn) [Example 157, 1-(2-hydroxy-2-methylpropyl)-6-(2-methoxyphenyl)-N-((αR)-6-(4-oxo-3,4-dihydrophthalazin-1-yl)spiro[3.3]heptan-2-yl)-1H-indazole-3-carboxamide]
15.1 to 100	O=C(NC1CC2(C1)CC(c1n[nH]c(=O)c3ccccc13)C2)c1ccnn1CC1CC1 [Example 103, 1-(cyclopropylmethyl)-N-((aR)-6-(4-oxo-3,4-dihydrophthalazin-1-yl)spiro[3.3]heptan-2-yl)-1H-pyrazole-5-carboxamide]
100 to 2100	CN(C)c1ccc(C(=O)NC2CC3(C2)CC(c2n[nH]c(=O)c4ccccc24)C3)cc1 (stereo not drawn) [Example 2, 4-(dimethylamino)-N-[6-(4-oxo-3,4-dihydrophthalazin-1-yl)spiro[3.3]heptan-2-yl]benzamide]
0.2 to 2	O=C(NC1CC2(C1)CC(c1n[nH]c(=O)c3ccccc13)C2)c1cnn2cc(OC3CCOCC3)ccc12 (stereo not drawn) [Example 135, N-((αR)-6-(4-oxo-3,4-dihydrophthalazin-1-yl)spiro[3.3]heptan-2-yl)-6-((tetrahydro-2H-pyran-4-yl)oxy)pyrazolo[1,5-α]pyridine-3-carboxamide]
0.2 to 2	O=C(NC1CC2(C1)CC(c1n[nH]c(=O)c3ccccc13)C2)c1cnn2cc(-c3cnn(C4CCOC4)c3)ccc12 [Example 226, N-((aR)-6-(4-oxo-3,4-dihydrophthalazin-1-yl)spiro[3.3]heptan-2-yl)-6-(1-(tetrahydrofuran-3-yl)-1H-pyrazol-4-yl)pyrazolo[1,5-a]pyridine-3-carboxamide]
5.1 to 15	O=C(NC1CC2(C1)CC(c1n[nH]c(=O)c3ccccc13)C2)c1cnn2c(C(F)(F)F)c(OCc3ccccc3)ccc12 (stereo not drawn) [Example 141, 6-(benzyloxy)-N-((αR)-6-(4-oxo-3,4-dihydrophthalazin-1-yl)spiro[3.3]heptan-2-yl)-7-(trifluoromethyl)pyrazolo[1,5-α]pyridine-3-carboxamide]
15.1 to 100	[H][C@]1(c2n[nH]c(=O)c3ccccc32)C[C@]2(C[C@@H](NC(=O)C3=C(OCC)C(=O)N(CC(F)(F)F)C3)C2)C1 (stereo partly drawn) [Example 355, 4-ethoxy-5-oxo-N-((aR)-6-(4-oxo-3,4-dihydrophthalazin-1-yl)spiro[3.3]heptan-2-yl)-1-(2,2,2-trifluoroethyl)-2,5-dihydro-1H-pyrrole-3-carboxamide]
5.1 to 15	[H][C@]1(c2n[nH]c(=O)c3ccccc32)C[C@]2(C[C@@H](NC(=O)N3CCc4ccccc43)C2)C1 (stereo partly drawn) [Example 50, N-((aR)-6-(4-Oxo-3,4-dihydrophthalazin-1-yl)spiro[3.3]heptan-2-yl)indoline-1-carboxamide]
0.2 to 2	Cc1c(-c2ccc3c(C(=O)N[C@H]4CC5(C4)C[C@H](c4n[nH]c(=O)c6ccccc64)C5)cnn3c2)cnn1C (stereo partly drawn) [Example 216, 6-(1,5-dimethyl-1H-pyrazol-4-yl)-N-((aR)-6-(4-oxo-3,4-dihydrophthalazin-1-yl)spiro[3.3]heptan-2-yl)pyrazolo[1,5-a]pyridine-3-carboxamide]
100 to 2100	Cc1nnc(NC(=O)C2CC3(C2)CC(c2n[nH]c(=O)c4ccccc24)C3)s1 (stereo not drawn) [Example 48, N-(5-methyl-1,3,4-thiadiazol-2-yl)-6-(4-oxo-3,4-dihydrophthalazin-1-yl)spiro[3.3]heptane-2-carboxamide]
0.2 to 2	Cn1cc(-c2ccc3c(c2)CCN3C(=O)NC2CC3(C2)CC(c2n[nH]c(=O)c4ccccc24)C3)cn1 [Example 235, 5-(1-methyl-1H-pyrazol-4-yl)-N-((aR)-6-(4-oxo-3,4-dihydrophthalazin-1-yl)spiro[3.3]heptan-2-yl)indoline-1-carboxamide]
5.1 to 15	[H][C@]1(c2n[nH]c(=O)c3ccccc32)C[C@]2(C[C@@H](NC(=O)c3cnc4cc(C(C)O)ccn34)C2)C1 (stereo partly drawn) [Example 430, 7-(1-hydroxyethyl)-N-((aR)-6-(4-oxo-3,4-dihydrophthalazin-1-yl)spiro[3.3]heptan-2-yl)imidazo[1,2-a]pyridine-3-carboxamide]
0.2 to 2	[H][C@]1(c2n[nH]c(=O)c3ccccc32)C[C@]2(C[C@@H](NC(=O)c3cc4cccc(C(F)(F)F)c4[nH]3)C2)C1 (stereo partly drawn) [Example 332, N-((aR)-6-(4-oxo-3,4-dihydrophthalazin-1-yl)spiro[3.3]heptan-2-yl)-7-(trifluoromethyl)-1H-indole-2-carboxamide]
